Test results reported in PubChem BioAssay AID248 (DTP/NCI, 2004).
Where “and” joins values, the source holds several entries; their conditions need not be identical. Identical values can stand only once. Inconclusive results and toxic doses are left out. Rule as the data show it: active = T/C of 150% or more; inactive = T/C below 125%. Square brackets hold non-standard residues; d marks the D form. Peptide text beside a SMILES is read from it. * marks the point of attachment. ξ: configuration not given here. Cbz = O=C(OCc1ccccc1)*; ξP = O=C(O)C1CCCN1

Test system: L1210 leukemia ip in BDF1 mice, survival T/C
Assay: NCI In Vivo Anticancer Drug Screen. Data for tumor model L1210 Leukemia (intraperitoneal) in B6D2F1 (BDF1) mice
Details: endpoint: mean survival time, higher = longer survival
In short: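 In this screen, tumor-bearing mice given compound are compared to those given vehicle, and their survival values are reported as a treated-to-control quotient.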

[1] = dose: 25.0 mg/kg/injection, schedule: Q01DX009 (ip), vehicle: saline
[2] = dose: 50.0 mg/kg/injection, schedule: Q01DX009 (ip), vehicle: Klucel (hydroxypropylcellulose) (HPC)
[3] = dose: 100.0 mg/kg/injection, schedule: Q01DX009 (ip), vehicle: Klucel (hydroxypropylcellulose) (HPC)
[4] = dose: 200.0 mg/kg/injection, schedule: Q01DX009 (ip), vehicle: Klucel (hydroxypropylcellulose) (HPC)
[5] = dose: 100.0 mg/kg/injection, schedule: Q01DX001 (ip), vehicle: Klucel (hydroxypropylcellulose) (HPC)
[6] = dose: 100.0 mg/kg/injection, schedule: Q04DX003 (ip), vehicle: Klucel (hydroxypropylcellulose) (HPC)
[7] = dose: 200.0 mg/kg/injection, schedule: Q01DX001 (ip), vehicle: Klucel (hydroxypropylcellulose) (HPC)
[8] = dose: 200.0 mg/kg/injection, schedule: Q04DX003 (ip), vehicle: Klucel (hydroxypropylcellulose) (HPC)
[9] = dose: 400.0 mg/kg/injection, schedule: Q01DX001 (ip), vehicle: Klucel (hydroxypropylcellulose) (HPC)
[10] = dose: 400.0 mg/kg/injection, schedule: Q01DX009 (ip), vehicle: Klucel (hydroxypropylcellulose) (HPC)
[11] = dose: 400.0 mg/kg/injection, schedule: Q04DX003 (ip), vehicle: Klucel (hydroxypropylcellulose) (HPC)
[12] = dose: 100.0 mg/kg/injection, schedule: Q01DX001 (ip), vehicle: carboxymethylcellulose (CMC)
[13] = dose: 200.0 mg/kg/injection, schedule: Q01DX001 (ip), vehicle: carboxymethylcellulose (CMC)
[14] = dose: 400.0 mg/kg/injection, schedule: Q01DX001 (ip), vehicle: carboxymethylcellulose (CMC)
[15] = dose: 100.0 mg/kg/injection, schedule: Q01DX001 (ip), vehicle: saline
[16] = dose: 200.0 mg/kg/injection, schedule: Q01DX001 (ip), vehicle: saline
[17] = dose: 400.0 mg/kg/injection, schedule: Q01DX001 (ip), vehicle: saline
[18] = dose: 50.0 mg/kg/injection, schedule: Q01DX001 (ip), vehicle: saline
[19] = dose: 100.0 mg/kg/injection, schedule: Q01DX009 (ip), vehicle: saline
[20] = dose: 100.0 mg/kg/injection, schedule: Q04DX003 (ip), vehicle: saline

Measured: T/C

CCCCOc1ccc(S(=O)(=O)c2ccc(OCCCC)c([N+](=O)[O-])c2)cc1[N+](=O)[O-]
inactive: dose: 75.0 mg/kg/injection, schedule: Q04DX002 (ip), vehicle: gum acacia 97 % of control | dose: 150.0 mg/kg/injection, schedule: Q04DX002 (ip), vehicle: gum acacia 97 % of control | dose: 300.0 mg/kg/injection, schedule: Q04DX002 (ip), vehicle: gum acacia 97 % of control

CCN(CC)Cc1ccc(N)cc1
inactive: dose: 12.5 mg/kg/injection, schedule: Q01DX009 (ip), vehicle: saline 100 % of control | [1] 110 % of control

COc1ccc2c(ccc3nc(CCC(=O)O)n(C)c(=O)c32)c1
inactive: [2] 96 % of control | [3] 96 % of control | [4] 108 % of control

Fc1ccc(/C=C2/c3cc(Cl)ccc3-c3c(Cl)cc(Cl)cc32)cc1
inactive: [5] 96 % of control | [3] 98 % of control | [6] 98 % of control | [7] 90 % of control | [4] 104 % of control | [8] 90 % of control | [9] 89 % of control | [10] 114 % of control | [11] 95 % of control

CCOc1ccccc1NC(=S)NC1CCCCC1
inactive: [3] 97 % of control | [4] 100 % of control

CCOC(=O)c1cc(Cl)c(O)c(Cl)c1
inactive: dose: 25.0 mg/kg/injection, schedule: Q01DX009 (ip), vehicle: gum acacia 100 % of control | dose: 50.0 mg/kg/injection, schedule: Q01DX009 (ip), vehicle: gum acacia 98 % of control | dose: 100.0 mg/kg/injection, schedule: Q01DX009 (ip), vehicle: gum acacia 98 % of control and 100 % of control | [6] 93 % of control | [8] 103 % of control | [11] 95 % of control

CC(=N)c1ccc(C)cc1
inactive: dose: 6.25 mg/kg/injection, schedule: Q01DX009 (ip), vehicle: saline with Tween-80 94 % of control | dose: 12.5 mg/kg/injection, schedule: Q01DX009 (ip), vehicle: saline with Tween-80 96 % of control | dose: 25.0 mg/kg/injection, schedule: Q01DX009 (ip), vehicle: saline with Tween-80 102 % of control

CN=C(NO)c1ccccc1
inactive: [5] 107 % of control | [7] 98 % of control

CC1(C)CCOC(C2OCCC(C)(C)O2)O1 (stereo not drawn)
inactive: dose: 50.0 mg/kg/injection, schedule: Q01DX009 (ip), vehicle: acetone 113 % of control | dose: 100.0 mg/kg/injection, schedule: Q01DX009 (ip), vehicle: acetone 93 % of control | dose: 200.0 mg/kg/injection, schedule: Q01DX009 (ip), vehicle: acetone 98 % of control

CCCCCCCCCCCCCCCCCC1=Nc2cc(C)c(C)cc2NC(=O)C1
inactive: [12] 93 % of control | [13] 88 % of control | [14] 86 % of control

FC(F)OC(F)(F)C(F)Cl (stereo not drawn)
inactive: [15] 89 % of control | [16] 89 % of control | [17] 97 % of control

NCCCCc1nc(N)nc(N)c1-c1ccc(Cl)cc1
inactive: dose: 25.0 mg/kg/injection, schedule: Q01DX001 (ip), vehicle: saline 104 % of control | [18] 96 % of control | [15] 102 % of control

NC(=S)c1cn(C2OC(CO)C(O)C2O)c2ncnc(N)c12 (stereo not drawn)
active: dose: 0.5 mg/kg/injection, schedule: Q03HX024 (ip), vehicle: saline 156 % of control | dose: 1.0 mg/kg/injection, schedule: Q03HX024 (ip), vehicle: saline 172 % of control | dose: 2.0 mg/kg/injection, schedule: Q03HX016 (ip), vehicle: other 176 % of control | dose: 8.0 mg/kg/injection, schedule: Q04DX003 (ip), vehicle: saline 151 % of control
inactive: dose: 0.5 mg/kg/injection, schedule: Q03HX016 (ip), vehicle: other 118 % of control | dose: 1.0 mg/kg/injection, schedule: Q03HX016 (ip), vehicle: other 118 % of control | dose: 2.0 mg/kg/injection, schedule: Q03HX024 (ip), vehicle: saline 124 % of control | dose: 3.75 mg/kg/injection, schedule: Q01DX009 (ip), vehicle: carboxymethylcellulose (CMC) 110 % of control | dose: 4.0 mg/kg/injection, schedule: Q08DX002 (ip), vehicle: other 123 % of control | dose: 5.0 mg/kg/injection, schedule: Q01DX001 (ip), vehicle: saline 112 % of control | dose: 7.5 mg/kg/injection, schedule: Q01DX001 (ip), vehicle: carboxymethylcellulose (CMC) 117 % of control | dose: 8.0 mg/kg/injection, schedule: Q08DX002 (ip), vehicle: other 123 % of control | dose: 10.0 mg/kg/injection, schedule: Q01DX001 (ip), vehicle: saline 118 % of control | dose: 15.0 mg/kg/injection, schedule: Q01DX001 (ip), vehicle: carboxymethylcellulose (CMC) 122 % of control | dose: 16.0 mg/kg/injection, schedule: Q04DX003 (ip), vehicle: saline 96 % of control

COc1cc2c(cc1OC)C(CNC(=O)/C=C/c1ccccc1)C2 (stereo not drawn)
inactive: [3] 106 % of control | [6] 101 % of control | [4] 101 % of control | [8] 94 % of control | [10] 95 % of control | [11] 97 % of control

Cc1ccc(C)c(Nc2cc(=O)[nH]c(=O)[nH]2)c1
inactive: dose: 100.0 mg/kg/injection, schedule: Q04DX003 (ip), vehicle: gum acacia 93 % of control | dose: 200.0 mg/kg/injection, schedule: Q04DX003 (ip), vehicle: gum acacia 91 % of control | dose: 400.0 mg/kg/injection, schedule: Q04DX003 (ip), vehicle: gum acacia 87 % of control

COC1=C(Nc2cccc(C)c2C)C(=O)C(OC)=C(Nc2cccc(C)c2C)C1=O
inactive: [18] 97 % of control | [15] 103 % of control | [19] 111 % of control | [20] 98 % of control | [16] 115 % of control | dose: 200.0 mg/kg/injection, schedule: Q01DX009 (ip), vehicle: saline 96 % of control | dose: 200.0 mg/kg/injection, schedule: Q04DX003 (ip), vehicle: saline 91 % of control | [17] 103 % of control | dose: 400.0 mg/kg/injection, schedule: Q01DX009 (ip), vehicle: saline 90 % of control | dose: 400.0 mg/kg/injection, schedule: Q04DX003 (ip), vehicle: saline 91 % of control

CC(=O)N(N=O)c1cc(Cl)ccc1Cl
inactive: [18] 113 % of control | [15] 110 % of control | [16] 101 % of control | [17] 107 % of control

Cc1cc[n+](Cc2ccc([N+](=O)[O-])cc2)cc1
inactive: [1] 94 % of control | dose: 50.0 mg/kg/injection, schedule: Q01DX009 (ip), vehicle: saline 89 % of control | dose: 50.0 mg/kg/injection, schedule: Q04DX003 (ip), vehicle: saline 101 % of control | [15] 96 % of control | [19] 93 % of control | [20] 98 % of control | [16] 100 % of control

COC(=O)C(C(=O)Oc1ccc([N+](=O)[O-])cc1)c1ccccc1 (stereo not drawn)
inactive: [5] 97 % of control | [6] 101 % of control | [7] 97 % of control | [4] 102 % of control | [8] 103 % of control | [9] 100 % of control | [10] 109 % of control | [11] 101 % of control

O=C(NCC(=O)N1CCCC1C(=O)O)OCc1ccccc1 (stereo not drawn) (Cbz-Gly-[ξP]-OH)
inactive: [2] 93 % of control | dose: 50.0 mg/kg/injection, schedule: Q04DX003 (ip), vehicle: Klucel (hydroxypropylcellulose) (HPC) 96 % of control | [3] 97 % of control | [6] 91 % of control | [4] 93 % of control | [8] 93 % of control

CCCP(=S)(CC)CC
inactive: dose: 100.0 mg/kg/injection, schedule: Q04DX002 (ip), vehicle: Klucel (hydroxypropylcellulose) (HPC) 90 % of control | dose: 200.0 mg/kg/injection, schedule: Q04DX002 (ip), vehicle: Klucel (hydroxypropylcellulose) (HPC) 93 % of control | dose: 400.0 mg/kg/injection, schedule: Q04DX002 (ip), vehicle: Klucel (hydroxypropylcellulose) (HPC) 90 % of control

CC(Nc1nc(SCc2ccccc2)c2ncn(C3OC(CO)C(O)C3O)c2n1)C(=O)O (stereo not drawn)
inactive: dose: 50.0 mg/kg/injection, schedule: Q01DX001 (ip), vehicle: carboxymethylcellulose (CMC) 107 % of control | [12] 109 % of control | [13] 104 % of control | [14] 104 % of control
